{
  "source": "patent US20170340905A1",
  "about": "“MACROCYCLIC KETONE AS MALODOR COUNTERACTING INGREDIENT” (Firmenich SA, priority 2014, published 2017)",
  "key": {"[1]": {"test": "Sensory malodor reduction test, Sniffin' Sticks odor pens, pet malodor", "conditions": "for Average Perceived Malodor Intensity (APMI) / Average Perceived Overall Odor Intensity (APOOI): scale 0-10", "experimental": "(§1) The Compound 1, as defined above, was tested, using current sensory analysis methods, for its ability to reduce the perception of bathroom, tobacco, kitchen, pet and body malodors.\n(§2) In the following description, the test concentration of the malodor sample used in each case was selected so as to provide a perceived malodor intensity, when evaluated in Sniffin' Sticks odor pens as described below, that was approximately of the order of 6 units on the scale described under Section C below.\nPet malodor: 0.5% by weight, in propylene glycol\n(§3) The test concentration of the Compound 1 used in each of the malodor reduction tests was selected so as to provide a perceived intensity, when evaluated in Sniffin' Sticks odor pens as described below, that was approximately of the order of 6 units on the scale described under Section C below. The concentration of Compound 1 that was perceived as comprising an odor intensity of about 6 when evaluated in Sniffin' Sticks odor pens was 16% by weight in propylene glycol.\n(§4) Stock solutions were prepared as follows: • Compound 1 32% by weight: 12.8 g of Compound 1 was mixed with 27.2 g of propylene glycol. • Bathroom malodor 0.6% by weight: 0.6 g of bathroom malodor was mixed with 99.4 g of propylene glycol. • Kitchen malodor 60% by weight: 12.0 g of kitchen malodor was mixed with 8.0 g of propylene glycol. • Body malodor 1% by weight: 1.0 g of body malodor was mixed with 99.0 g of propylene glycol. • Pet malodor 1% by weight: 1.0 g of pet malodor was mixed with 99.0 g of propylene glycol. • The tobacco malodor was used as is.\n(§5) Each sensory test comprised 3 samples: a malodor only sample; a test sample comprising a combination of […] and the test malodor; and, a Compound 1 only sample. The samples for the sensory tests were prepared as follows:\n(§6) Malodor only sample: in a separate beaker 3.0 g of malodor stock solution, was mixed with 3.0 g of propylene glycol. Once fully homogenized, 2.0 g of the resulting solution was applied to the absorbent fiber in the body of a Sniffin' Stick odor pen (origin: Burghart Messtechnik GmbH). The odor pen was immediately capped and allowed to equilibrate for 24 hours before use.\n(§7) Compound 1 only sample: in a separate beaker 3.0 g of Compound 1 stock solution was mixed with 3.0 g of propylene glycol. Once fully homogenized, 2.0 g of the resulting solution was applied to the absorbent fiber in the body of a Sniffin' Stick odor pen (origin: Burghart Messtechnik GmbH). The odor pen was immediately capped and allowed to equilibrate for 24 hours before use.\n(§8) Test samples: in a separate beaker 3.0 g of Compound 1 stock solution was mixed with 3.0 g of malodor stock solution. Once fully homogenized, 2.0 g of the resulting solution was applied to the absorbent fiber in the body of a Sniffin' Stick odor pen (origin: Burghart Messtechnik GmbH). The odor pen was immediately capped and allowed to equilibrate for 24 hours before use.\n(§9) The samples were assessed by a panel of 19 trained panelists. By “trained panelists” we mean here individuals that had previously been screened for olfactive acuity and were experienced in rating the perfume and malodor intensity. Moreover, the panelists were prior acquainted with the malodor sample before carrying out the malodor reduction efficacy test.\n(§10) Each test comprised a malodor only sample, a Compound 1 only sample, and a test sample that comprised Compound 1 and the malodor. […]"}, "[2]": {"test": "Sensory malodor reduction test, Sniffin' Sticks odor pens, tobacco malodor", "conditions": "for Average Perceived Malodor Intensity (APMI) / Average Perceived Overall Odor Intensity (APOOI): scale 0-10", "experimental": "as §1\nThe tobacco malodor was prepared by extraction of cigarette debris, comprising: ash; filter; and, paper. The debris from 30 smoked Marlboro lied cigarettes (origin: Philip Morris International) was collected in a 500 ml glass powder jar with a screw closure. 300 ml of ethanol was added. The combination was mixed in a Turbula mixer for 8 hours and then filtered through a Whatman Grade 4 filter paper. The filtrate was used as the tobacco malodor.\nas §2\nTobacco malodor: 50% by weight in propylene glycol\nas §3, §4, §5, §6, §7, §8\nThe samples were assessed by a panel of 19 trained panelists. […]"}, "[3]": {"tested_on": "Staphylococcus haemolyticus ATCC 114126", "test": "MIC test in 96 well plates", "type": "cell-based", "conditions": "S. haemolyticus, associated with body odor", "experimental": "(§11) Bacterial solutions of four bacterial strains were prepared for MIC test as follows. Stock cultures stored at -80° C. were subcultured onto agar plate media, and incubated at 37° C. for 24 h to obtain single colonies. Single colonies of the primary cultures were inoculated into broth media and incubated at 37° C., 160 rpm overnight. Aliquots of overnight cultures were inoculated into 50 ml of fresh broth media, and incubated at 37° C., 160 rpm. When the OD reached the target value for each strain (see Table 1), cells were harvested by centrifugation at 5000 rpm for 10 min, and then resuspended in the same fresh broth media at the same volume before the centrifugation. Aliquots (1.1 ml) of each cell suspension were diluted in 200 ml of the same broth media as the bacterial solutions for the MIC test. [table] Sample solutions of casmirone and reference material ([…]) were prepared as follows. Stock solutions of 1% and 20% were prepared in ethanol, and then seven serial dilutions of each stock solution were prepared in ethanol to obtain a total of 16 solutions of casmirone or the reference material. Aliquot (10 μl) of each solution was used for MIC test. The tested final concentrations of each material were 29, 44, 66, 99, 148, 222, 333, 500, 590, 900, 1300, 2000, 3000, 4500, 6700, 10000 ppm. The test material control was trans-hexenal, a known material for MIC tests and control tests (e.g. see Int J Food Microbiol. 2010 January 1;136(3):304-9). MIC test were performed in 96 well plates. […] Column 1 contained bacterial solution only (the positive growth control), and column 12 contained growth media only (the negative growth control). Aliquots (10 μl) of sample solutions were mixed with 190 μl of bacterial solutions in growth media, at concentrations of 10^5 to 10^6 cfu/ml, in wells of the 96 well plates. Three replicates for solution. The 96 wells plates were incubated at 37° C., 160 rpm overnight. After incubation, wells of 96 well plates were examined. Turbid wells were regarded as an indication of microbial growth. Minimal inhibition concentration (MIC) was determined as the lowest concentration where no growth was observed. Average MIC value of the three replicates was calculated against each strain (see Table 3)."}, "[4]": {"tested_on": "Staphylococcus aureus DSMZ 1104", "test": "MIC test in 96 well plates", "type": "cell-based", "conditions": "S. aureus, associated with hygiene", "experimental": "as §11"}, "[5]": {"tested_on": "Morganella morganii URI62", "test": "MIC test in 96 well plates", "type": "cell-based", "conditions": "M. morganii, associated with urine/bathroom", "experimental": "as §11"}, "[6]": {"tested_on": "Streptococcus agalactiae URI3", "test": "MIC test in 96 well plates", "type": "cell-based", "conditions": "S. agalactiae, associated with urine/bathroom", "experimental": "as §11"}, "[7]": {"test": "Sensory malodor reduction test, Sniffin' Sticks odor pens, body malodor", "conditions": "for Average Perceived Malodor Intensity (APMI) / Average Perceived Overall Odor Intensity (APOOI): scale 0-10", "experimental": "as §1, §2\nBody malodor: 0.5% by weight in propylene glycol\nas §3, §4, §5, §6, §7, §8, §9, §10"}, "[8]": {"test": "Sensory malodor reduction test, Sniffin' Sticks odor pens, bathroom malodor", "conditions": "for Average Perceived Overall Odor Intensity (APOOI) / Average Perceived Malodor Intensity (APMI): scale 0-10", "experimental": "as §1, §2\nBathroom malodor: 0.3% by weight in propylene glycol\nas §3, §4, §5, §6, §7, §8, §9, §10"}, "[9]": {"test": "Sensory malodor reduction test, Sniffin' Sticks odor pens, kitchen malodor", "conditions": "for Average Perceived Malodor Intensity (APMI) / Average Perceived Overall Odor Intensity (APOOI): scale 0-10", "experimental": "as §1, §2\nKitchen malodor: 30% by weight in propylene glycol\nas §3, §4, §5, §6, §7, §8, §9, §10"}, "[10]": {"conditions": "Compound 1 + Malodor vs Malodor Only"}, "[11]": {"conditions": "Compound 1 + Malodor: 0.01 g pet malodor, 0.32 g Compound 1, 1.67 g propylene glycol"}, "[12]": {"conditions": "Compound 1 Only: 0.32 g Compound 1, 1.68 g propylene glycol, pet malodor test"}, "[13]": {"conditions": "Compound 1 + Malodor: 1.00 g tobacco malodor, 0.32 g Compound 1, 0.68 g propylene glycol"}, "[14]": {"conditions": "Compound 1 Only: 0.32 g Compound 1, 1.68 g propylene glycol, tobacco malodor test"}, "[15]": {"conditions": "Compound 1 + Malodor: 0.01 g body malodor, 0.32 g Compound 1, 1.67 g propylene glycol"}, "[16]": {"conditions": "Compound 1 Only: 0.32 g Compound 1, 1.68 g propylene glycol, body malodor test"}, "[17]": {"conditions": "Compound 1 Only: 0.320 g Compound 1, 1.680 g propylene glycol, bathroom malodor test"}, "[18]": {"conditions": "Compound 1 + Malodor: 0.60 g kitchen malodor, 0.32 g Compound 1, 1.08 g propylene glycol"}, "[19]": {"conditions": "Compound 1 Only: 0.32 g Compound 1, 1.68 g propylene glycol, kitchen malodor test"}},
  "note": "Marks after values point to notes of the source that are not given here.",
  "data": [
    {"smiles": "O=C1CCC=CCCC=CCCC1", "note": "[Compound 1, 4,8-cyclododecadien-1-one]", "values": [
      {"measurement": "reducing the perceived intensity of pet malodor", "setting": "[1]; [10]", "result": "efficient"},
      {"measurement": "Average Perceived Malodor Intensity (APMI)", "setting": "[1]; [11]", "result": "4.84 *"},
      {"measurement": "Average Perceived Overall Odor Intensity (APOOI)", "setting": "[1]; [11]", "result": 6.70},
      {"measurement": "Average Perceived Malodor Intensity (APMI)", "setting": "[1]; [12]", "result": "0.93 *"},
      {"measurement": "Average Perceived Overall Odor Intensity (APOOI)", "setting": "[1]; [12]", "result": 6.01},
      {"measurement": "reducing the perceived intensity of tobacco malodor", "setting": "[2]; [10]", "result": "efficient"},
      {"measurement": "Average Perceived Malodor Intensity (APMI)", "setting": "[2]; [13]", "result": "3.35 *"},
      {"measurement": "Average Perceived Overall Odor Intensity (APOOI)", "setting": "[2]; [13]", "result": 5.85},
      {"measurement": "Average Perceived Malodor Intensity (APMI)", "setting": "[2]; [14]", "result": "1.27 *"},
      {"measurement": "Average Perceived Overall Odor Intensity (APOOI)", "setting": "[2]; [14]", "result": 6.07},
      {"measurement": "activity in application", "setting": "[3]", "result": "(compound 1 is efficiently active in application)"},
      {"measurement": "MIC", "setting": "[3]; Staphylococcus haemolyticus, ATCC114126, average of three replicates, 37° C. overnight", "result": 345, "unit": "µg/mL"},
      {"measurement": "activity in application", "setting": "[4]", "result": "(compound 1 is efficiently active in application)"},
      {"measurement": "MIC", "setting": "[4]; Staphylococcus aureus, DSMZ1104, average of three replicates, 37° C. overnight", "result": 333, "unit": "µg/mL"},
      {"measurement": "activity in application", "setting": "[5]", "result": "(compound 1 is efficiently active in application)"},
      {"measurement": "MIC", "setting": "[5]; Morganella morganii, URI62, average of three replicates, 37° C. overnight", "result": 900, "unit": "µg/mL"},
      {"measurement": "activity in application", "setting": "[6]", "result": "(compound 1 is moderately active in application)"},
      {"measurement": "MIC", "setting": "[6]; Streptococcus agalactiae, URI3, average of three replicates, 37° C. overnight", "result": 3430, "unit": "µg/mL"},
      {"measurement": "reducing the perceived intensity of body malodor", "setting": "[7]; [10]", "result": "efficient"},
      {"measurement": "Average Perceived Malodor Intensity (APMI)", "setting": "[7]; [15]", "result": "2.78 *"},
      {"measurement": "Average Perceived Overall Odor Intensity (APOOI)", "setting": "[7]; [15]", "result": 5.61},
      {"measurement": "Average Perceived Malodor Intensity (APMI)", "setting": "[7]; [16]", "result": "0.83 *"},
      {"measurement": "Average Perceived Overall Odor Intensity (APOOI)", "setting": "[7]; [16]", "result": 6.39},
      {"measurement": "reducing the perceived intensity of bathroom malodor", "setting": "[8]; [10]", "result": "efficient"},
      {"measurement": "Average Perceived Overall Odor Intensity (APOOI)", "setting": "[8]; Compound 1 + Malodor: 0.006 g bathroom malodor, 0.320 g Compound 1, 1.674 g propylene glycol", "result": 5.99},
      {"measurement": "Average Perceived Malodor Intensity (APMI)", "setting": "[8]; Compound 1 + Malodor: 0.006 g bathroom malodor, 0.320 g Compound 1, 1.674 g propylene glycol, 19 panelists", "result": "1.61 *"},
      {"measurement": "Average Perceived Malodor Intensity (APMI)", "setting": "[8]; [17]", "result": "0.91 *"},
      {"measurement": "Average Perceived Overall Odor Intensity (APOOI)", "setting": "[8]; [17]", "result": 5.75},
      {"measurement": "reducing the perceived intensity of kitchen malodor", "setting": "[9]; [10]", "result": "efficient"},
      {"measurement": "Average Perceived Malodor Intensity (APMI)", "setting": "[9]; [18]", "result": "2.49 *"},
      {"measurement": "Average Perceived Overall Odor Intensity (APOOI)", "setting": "[9]; [18]", "result": 5.51},
      {"measurement": "Average Perceived Malodor Intensity (APMI)", "setting": "[9]; [19]", "result": "0.95 *"},
      {"measurement": "Average Perceived Overall Odor Intensity (APOOI)", "setting": "[9]; [19]", "result": 5.78}
    ]}
  ]
}
